Experimental data: patent US20250333733A1, “NOVEL TARGETS AGAINST OVARIAN CANCER” (UNIVERSITY OF PUERTO RICO, priority 2022, published 2025)

Columns and labels:
SKOV3ip1CIS cells [1] = experiment: Colony formation assay after siRNA transfection; format: cell-based, human; conditions: SKOV3ip1CIS (FIG. 8B)
Method: (§1) SiRNA ON-TARGET plus SMARTpool (a mixture of 4 siRNA as a single tube) and a negative control siRNA (NC-siRNA) (Sigma-Aldrich) were used for transfection studies. CASC10, was targeted by using two siRNAs targeting different regions of the CASC10 RNA (e.g., CASC10-siRNA (1) and CASC10-siRNA (2)). OVCAR3CIS or SKOV3ip1CIS cells were seeded into 12-well plates at 3.0×10^4 cells/mL. The next day, siRNAs were mixed with HiPerfect transfection reagent (Qiagen, Valencia, CA) at a 1:2 ratio (SIRNA: HiPerfect) in serum and antibiotic-free Opti-MEM medium (Gibco) and added to the cells. After twenty-four hours the media was replaced by regular culture media, and cells were cultured and used for further experiments. To assess siRNA transfection efficiency, cells were collected 24 hours after siRNA transfection.
(§2) OVCAR3CIS cells (3.0×10^4 cells/mL) or SKOV3ip1CIS (3.0×10^4 cells/mL) were seeded into 12-well plates. Twenty-four hours later, cells were transfected with 100 nM (final concentration) of each siRNA. […] Colonies of at least 50 cells were counted using a light microscope (CKX41: Olympus, Center Valley, PA, USA) with a total magnification of 40x. […] Optical density (OD) was measured, and percentages of cell viability were calculated after blank OD subtraction. Untreated cells were assessed as 100% cell viability.

OVCAR3CIS cells [2] = experiment: RNA-seq after siRNA-mediated CASC10 knockdown; format: cell-based
Method: The RNA sequencing library was prepared by first extracting, total RNA using the GenElute Mammalian Total RNA Miniprep Kit (Sigma). RNA sample integrity was evaluated and RNAs with a RIN >7 were used.
RNA fragmentation was carried out for 10 minutes, followed by first-and second-strand cDNA synthesis and adenylation using the TruSeq Stranded Total RNA with Illumina Ribo-Zero Plus rRNA Depletion (Illumina, San Diego, CA). The PCR products were run on a flow cell running a 50 base paired-end (2X50) recipe. The differential expression analysis was carried out using the DESeq2 (version 1.28.1) package (R version 4.0.1). As the count data was obtained in two batches, a batch correction term was introduced in the DESeq2 model using ComBat Seq to have better statistical power and control of false positives. The Ensembl IDs were converted to gene symbols and names using the org.Hs.eg.db package (version 3.11.4). […]

SKOV3ip1 cells = experiment: Cell viability, Alamar blue, siRNA; format: cell-based, human; conditions: SKOV3ip1, any siRNA concentration tested, vs NC-siRNA
Method: OVCAR3CIS cells (3.0×10^4 cells/mL) or SKOV3ip1CIS (3.0×10^4 cells/mL) were seeded into 12-well plates. Twenty-four hours later, cells were transfected with 100 nM (final concentration) of each siRNA. The next day, 400 cells (OVCAR3CIS) or 1,000 cells (SKOV3ip1CIS) were seeded into 6-well plates and incubated for seven days, fixed and stained with 0.5% crystal violet in methanol. Colonies of at least 50 cells were counted using a light microscope (CKX41: Olympus, Center Valley, PA, USA) with a total magnification of 40x. For cell viability assays, OVCAR3 and OVCAR3CIS (3.0×10^4 cells/mL) or SKOV3ip1and SKOV3ip1CIS (3.5×10^4 cells/mL) were seeded into 96-well plates, and 24 hours later, siRNA transfection was performed as described above. The next day, the transfection mix was replaced with cisplatin (CIS) (2.5 uM final concentration dissolved in regular cell culture media) and after forty-eight hours, the medium was removed, and Alamar blue dye (Invitrogen, Thermo Fisher Scientific, Eugene, OR, USA) was added following the manufacturer's instructions. Optical density (OD) was measured, and percentages of cell viability were calculated after blank OD subtraction. Untreated cells were assessed as 100% cell viability.

OVCAR3CIS cells [3] = experiment: Western blot of apoptotic-related and cell-cycle related proteins; format: cell-based; conditions: vs NC-siRNA
Method: (§3) Cell pellets were lysed with complete lysis buffer and total protein concentration […]. Protein samples were separated by SDS-PAGE, blotted onto nitrocellulose membranes, blocked in either 5% non-fat dry milk (Bio-Rad) or 5% BSA (HyClone), and probed with the appropriate dilution of corresponding primary antibody. Membranes were rinsed and incubated with corresponding HRP-conjugated secondary antibody, followed by enhanced chemiluminescence and autoradiography.

SKOV3ip1CIS cells [4] = experiment: as above; format: cell-based, human
Method: as §3

OVCAR3CIS cells [5] = experiment: Matrigel transwell invasion assay; format: cell-based; conditions: vs NC-siRNA
Method: (§4) Cell invasion was measured using the Matrigel transwell method. OVCAR3CIS (3.0×10^4 cells/mL) or SKOVip1CIS (3.5×10^4 cells/mL) were seeded into 10 cm Petri dishes and transfected with siRNAs. Twenty-four hours later, serum-free matrigel (BD Biosciences CA, USA) was added onto the upper chambers of 24-well plates and incubated at 37° C. for polymerization. Transfected cells were collected and resuspended in serum-free and re-seeded onto the Matrigel-coated chambers. Medium containing 10% FBS was added to the lower area of the wells, and the plates incubated for 48 hours at 37° C. The medium was removed, and cells that invaded through the matrigel fixed and stained using ProtocolHema 3 Stain Set (Fisher Scientific MI, USA). Invaded cells were microscopically counted using a digital camera to capture images at a 20× resolution. The percentage of cell invasion was calculated using the NC-SIRNA condition as 100% cell invasion.

SKOV3IP1CIS = experiment: Matrigel transwell invasion assay; format: cell-based, human
Method: as §4

OVCAR3CIS cells [6] = experiment: Colony formation assay after siRNA transfection; format: cell-based; conditions: single siRNA, vs NC-siRNA
Method: as §1
as §2, with “viability. […]” for “viability.”

## CASC10-siRNA (2): siRNA targeting CASC10 RNA, SEQ ID NO 3 and 4: 5′ GACUCUUGGAUCCAAGUUU(dT)(dT) 3′ / 5′ AAACUUGGAUCCAAGAGUC(dT)(dT) 3′ (chain 1 GACUCUUGGAUCCAAGUUUNN; chain 2 AAACUUGGAUCCAAGAGUCNN; 3' dTdT overhangs, chemistry not fully specified)
SKOV3ip1CIS cells [1]
  reduction in the number of colonies: 86%
OVCAR3CIS cells [2]; log2 fold change >1.2 or <−1.2, p-value ≤0.01, vs NC-siRNA
  differentially expressed genes: 32
OVCAR3CIS cells [2]; padj <0.01
  differentially abundant transcripts exclusive of CASC10-siRNA (2) compared with NC-siRNA: 1,400
SKOV3ip1 cells
  cell viability: did not significantly reduce cell viability
OVCAR3CIS cells [3]
  Bcl-2 protein: strong reduction
  CDK4 protein: reduction
  Cyclin E1 protein: reduction
  cleaved Caspase-3 protein: significant increase
  cleaved Caspase-9 protein: significant increase
  cleaved PARP-1 protein: significant increase
  p27 protein levels: reduction
SKOV3ip1CIS cells [4]
  Bcl-2 decrease: 66%
  cleaved Caspase-3 increase: 6 fold
  cleaved Caspase-9 increase: 2 fold
  cleaved PARP-1 increase: 7 fold
SKOV3ip1CIS cells [4]; vs NC-siRNA
  CDK4 protein: reduction
  Cyclin E1 protein: reduction
  p27 protein levels: reduction
OVCAR3CIS cells [5]
  reduction of invasiveness: 62%
SKOV3IP1CIS
  reduction of invasion ability: 58%
OVCAR3CIS cells [6]
  reduction in the number of colonies: 54%
